Assay results reported in patent US5360802A, “Benzodiazepine derivatives, compositions containing them and their use in therapy” (priority 1992, dated 1994).
Read-outs that look alike come from different tables or passages of the source.

Legend:
CCK receptor (Pancreas) = target: T1, CCK receptor (Pancreas) (Rattus norvegicus, UniProt P30551); experiment: CCK Receptor Binding (Pancreas), displacement of 125I-CCK-8; design: species or system rat (male Sprague-Dawley); conditions: rat pancreas membranes, 125I-CCK-8 50 pM; for IC50: 25° C., 2 hours
T1 construct: The whole pancreas was dissected free of fat tissue and was homogenized; from tissue; host or cells: rat whole pancreas (male Sprague-Dawley), membrane homogenate
T1 sequence (P30551 1-444): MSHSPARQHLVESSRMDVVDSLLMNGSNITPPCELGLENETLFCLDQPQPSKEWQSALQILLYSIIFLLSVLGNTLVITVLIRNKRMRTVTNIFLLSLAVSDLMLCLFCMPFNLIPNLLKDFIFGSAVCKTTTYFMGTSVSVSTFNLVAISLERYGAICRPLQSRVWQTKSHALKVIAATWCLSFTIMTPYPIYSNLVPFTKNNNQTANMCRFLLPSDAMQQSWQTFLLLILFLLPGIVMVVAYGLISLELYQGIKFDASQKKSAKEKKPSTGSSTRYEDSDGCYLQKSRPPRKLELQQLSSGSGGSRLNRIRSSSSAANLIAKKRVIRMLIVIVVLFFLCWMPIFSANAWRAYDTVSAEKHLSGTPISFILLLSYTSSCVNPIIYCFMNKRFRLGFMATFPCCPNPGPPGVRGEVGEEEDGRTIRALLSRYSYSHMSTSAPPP
Method: CCK-8 sulphated was radiolabelled with ^125 I-Bolton Hunter reagent (2000 Ci/mmole). Receptor binding was performed according to Chang and Lotti (Proc. Natl. Acad. Sci. 83, 4923-4926, 1986) with minor modifications.
Male Sprague-Dawley rats (150-200 g) were sacrificed by decapitation. The whole pancreas was dissected free of fat tissue and was homogenized in 25 volumes of ice-cold 10 mM N-2-hydroxyethyl-piperazine-N'-2-ethane sulphonic acid (HEPES) buffer with 0.1% soya bean trypsin inhibitor (pH 7.4 at 25° C. ) with a Kinematica Polytron. The homogenates were centrifuged at 47,800 g for 10 min. Pellets were resuspended in 10 volumes of binding assay buffer (20mM (HEPES)), 1 mM ethylene glycol-bis-(β-aminoethylether-N,N'-tetraacetic acid) (EGTA), 5 mM MgCl2, 150 mM NaCl, bacitracin 0.25 mg/ml, soya bean trypsin inhibitor 0.1 mg/ml, and bovine serum albumin 2 mg/ml pH 6.5 at 25° C.) using a Teflon (trademark). homogenizer, 15 strokes at 500 rpm. The homogenate was further diluted in binding assay buffer to give a final concentration of 0.5 mg original wet weight/1 ml buffer. […] All assays were run in.duplicate. The reaction mixtures were incubated at 25° C. for 2 hours and the reaction terminated by rapid filtration (Brandell 24 well cell harvester) over Whatman GF/C filters, washing 3×4 mls with ice-cold 100 Mm NaCl. The radioactivity on the filters was counted with a LKB gamma counter.
(§1) Drug displacement studies were performed with at least 10 concentrations of compounds of Formula I and the IC50 values were determined by regression analysis IC50 refers to the concentration of the compound required to inhibit 50% of specific binding of ^125 I-CCK-8.

CCK receptor (Brain) = target: T2, CCK receptor (Brain) (Cavia porcellus, UniProt H0VZC5); experiment: biochemical; format: binding, guinea pig (male Hartley), cortex
T2 construct: the cortex was removed and homogenized in 25 mL ice-cold 0.32M sucrose; from tissue; host or cells: guinea pig cortex (male Hartley), P2 membrane pellet
T2 sequence (H0VZC5 1-426): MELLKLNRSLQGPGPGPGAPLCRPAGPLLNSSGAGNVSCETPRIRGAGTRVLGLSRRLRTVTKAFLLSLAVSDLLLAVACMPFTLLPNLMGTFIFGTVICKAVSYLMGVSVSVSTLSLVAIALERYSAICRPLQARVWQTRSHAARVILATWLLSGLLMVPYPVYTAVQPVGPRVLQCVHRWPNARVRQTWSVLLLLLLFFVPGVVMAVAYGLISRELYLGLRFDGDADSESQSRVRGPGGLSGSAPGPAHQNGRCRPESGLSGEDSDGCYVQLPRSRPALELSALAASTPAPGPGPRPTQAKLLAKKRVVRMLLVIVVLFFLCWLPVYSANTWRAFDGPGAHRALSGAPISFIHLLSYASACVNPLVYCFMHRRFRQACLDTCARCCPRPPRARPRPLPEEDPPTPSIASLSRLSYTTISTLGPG
Method: CCK-8 sulphated was radiolabelled and the binding was performed according to the description for the pancreas method with minor modifications.
Male Hartley guinea pigs (300-500 g) were sacrificed by decapitation and the cortex was removed and homogenized in 25 mL ice-cold 0.32M sucrose. The homogenates were centrifuged at 1000 g for 10 minutes and the resulting supernatant was recentrifuged at 20,000 g for 20 minutes. The P2 pellet was resuspended in binding assay buffer (20 mM HEPES, 5 mM MgCl2, 0.25 mg/ml bacitracin, 1 mM EGTA pH 6.5 at 25° C. ), using a Teflon (trademark) homogenizer (5 strokes at 500 rpm) to give a final concentration of 10 mg original wet weight/1.2 ml buffer. […] All assays were run in duplicate. The reaction mixtures were incubated at 25° C. for 2 hours and then the reaction was terminated by rapid filtration (Brandell 24 well cell harvester) on Whatman GF/C filters with 3×5 ml washes of cold 100 mM NaCl. The radioactivity on the filters was counted with a LKB gamma counter.
as §1

Gastrin receptor = target: T3, Gastrin receptor (Cavia porcellus, UniProt H0VZC5); experiment: Gastrin Receptor Binding in Guinea Pig Gastric Glands, displacement of 125I-gastrin; design: species or system guinea pig (male Hartley); conditions: 125I-gastrin 0.1 nM, 25° C., 30 minutes
T3 construct: from tissue; host or cells: guinea pig gastric mucosal glands (male Hartley), isolated with collagenase
T3 sequence (H0VZC5 1-426): T2 sequence (H0VZC5 1-426)
Method: Gastrin antagonist activity of compounds of Formula I was determined using the following assay.
Guinea pig gastric mucosal glands were prepared by the procedure of Chang et. al., Science, 230, 177-179 (1985) with slight modifications. […] The tissues were passed twice through a 5 ml syringe to liberate the gastric glands, and then filtered through Nitex (trademark) #202 gauge nylon mesh. The filtered glands were centrifuged at 272 g for 5 minutes and washed twice by resuspension in 25 ml buffer and centrifugation.
The washed guinea pig gastric glands prepared as above were resuspended in 25 ml of standard buffer. For binding studies, to 250 μl of gastric glands, 30 μl of buffer (for total binding) or gastrin (3 μM final concentration, for nonspecific binding) or test compound and 20 μl of ^125 I-gastrin (NEN, 2200 Ci/mmole, 0.1 nM final concentration) were added. All assays were run in triplicate. […] The reaction mixtures, after incubation at 25° C. for 30 minutes in a shaking water bath were rapidly filtered (Brandell 24 well cell harvester) over Whatman G/F B filters presoaked in assay buffer and immediately washed further with 3×4 ml of 100 mM ice cold NaCl. The radioactivity on the filters was measured using a LKB gamma counter.

[1] = 125I-CCK-8 50 pM, guinea pig cortex membranes, 25° C., 2 hours, read-out: IC50, 125I-CCK Brain

SMILES | % (inhibition of 125I-CCK binding) Pancreas (CCK receptor (Pancreas); at 3 μM) [%] | IC50 (CCK receptor (Pancreas)) [nM] | IC50 (CCK receptor (Brain); [1]) [nM] | IC50 (Gastrin receptor) [nM] | IC50 (CCK receptor (Brain)) [nM]
CC(C)CN1C(=O)C(NC(=O)Nc2cccc(-c3nn[nH]n3)c2)N=C(C2CCCCC2)c2ccccc21 (racemic) [Example 2, N-[3(R,S)-5-Cyclohexyl-2,3-dihydro-1-(2-methylpropyl)-2-oxo-1H-1,4-benzodiazepin-3-yl] N'-[3-tetrazol-5-ylphenyl]urea] | 27 | – | – | – | –
CN1C(=O)C(NC(=O)Nc2cccc(S(=O)(=O)Nc3cnccn3)c2)N=C(C2CCCCC2)c2ccccc21 (racemic) [Example 22, N-[3(R,S)-5-Cyclohexyl-2,3-dihydro-1-methyl-2-oxo-1H-1,4-benzodiazepin-3-yl] N'-[3-(2-pyrazinylaminosulphonyl)phenyl]urea] | – | 70 | 6.8 | – | –
CN1C(=O)C(NC(=O)Nc2cccc(C(=O)NS(=O)(=O)C(C)(C)C)c2)N=C(C2CCCCC2)c2ccccc21 (racemic) [Example 31, N-[3(R,S)-5-Cyclohexyl-2,3-dihydro-1-methyl-2-oxo-1H-1,4-benzodiazepin-3-yl]N'-[3-(1,1-dimethylethylsulphonylaminocarbonyl)phenyl]urea] | – | 6.2 | 0.22 | – | –
CN1C(=O)C(NC(=O)Nc2cccc(C(=O)NS(=O)(=O)C(C)(C)C)c2)N=C(C2CCCC2)c2ccccc21 (racemic) [Example 39, N-[3(R,S)-5-Cyclopentyl-2,3-dihydro-1-methyl-2-oxo-1H-1,4-benzodiazepin-3-yl]N'-[3-(1,1-dimethylethylsulphonylaminocarbonyl)phenylurea] | – | 270 | 0.56 | 1.18 | –
CN1C(=O)C(NC(=O)Nc2cccc([S+](C)[O-])c2)N=C(C2CCCCC2)c2ccccc21 (racemic) [Example 42, N-[3(R,S)-5-Cyclohexyl-2,3-dihydro-1-methyl-2-oxo-1H-1,4-benzodiazepin-3-yl]N'-[3(R,S)-(methylsulphinyl)phenyl]urea] | – | 18 | – | – | 15
